Results as given in ChEMBL document CHEMBL1122221, “Antimycotic azoles. 6. Synthesis and antifungal properties of terconazole, a novel triazole ketal” (1983).

Tests used:
[1] = test system: Trichophyton benhamiae; assay: Concentration for complete inhibition of growth of Trichophyton mentagrophytes; format: functional, organism-based; conditions: Arthroderma benhamiae
[2] = test system: Cavia porcellus; assay: Evaluated for marked improvement against microsporosis after topical treatment with 0.5% of compound in a group of 8 guinea pigs; format: functional
[3] = test system: Cavia porcellus; assay: Evaluated for cure against microsporosis after topical treatment with 1% of compound in a group of 8 guinea pigs; format: functional
[4] = test system: Microsporum canis; assay: Concentration for complete inhibition of growth of Microsporum canis; format: functional, organism-based
[5] = test system: Cavia porcellus; assay: Evaluated for cure against trichophytosis after topical treatment with 1% of compound in a group of 6 guinea pigs; format: functional
[6] = test system: Mucor; assay: Concentration for complete inhibition of growth of Mucor sp.; format: functional
[7] = test system: Candida albicans; assay: Concentration for complete inhibition of growth of Candida albicans; format: functional, organism-based
[8] = test system: Trichophyton rubrum; assay: Concentration for complete inhibition of growth of Trichophyton rubrum; format: functional, organism-based
[9] = test system: Cryptococcus neoformans; assay: Concentration for complete inhibition of growth of Cryptococcus neo formans; format: functional, organism-based
[10] = test system: Candida tropicalis; assay: Concentration for complete inhibition of growth of Candida tropicalis; format: functional, organism-based
[11] = test system: Rattus norvegicus; assay: Evaluated for cure against vaginal candidosis after topical treatment with 1% of compound in a group of 10 rats; format: functional
[12] = test system: Cavia porcellus; assay: Evaluated for marked improvement against trichophytosis after topical treatment with 0.5% of compound in a group of 6 guinea pigs; format: functional
[13] = test system: Phialophora verrucosa; assay: Concentration for complete inhibition of growth of Phialophora uerrucosa; format: functional, organism-based
[14] = test system: Aspergillus fumigatus; assay: Concentration for complete inhibition of growth of Aspergillus fumigatus; format: functional, organism-based
[15] = test system: Sporothrix schenckii; assay: Concentration for complete inhibition of growth of Sporo thrix schenck ii; format: functional, organism-based
[16] = test system: Saprolegnia; assay: Concentration for complete inhibition of growth of Saprolegnia sp.; format: functional, organism-based
[17] = test system: Rattus norvegicus; assay: Evaluated for marked improvement against vaginal candidosis after topical treatment with 0.5% of compound in a group of 10 rats; format: functional
[18] = test system: Cryptococcus neoformans; assay: Concentration for complete inhibition of growth of Cryptococcus neoformans in Sabouraud broth with 10% inactive bovine serum; format: functional, organism-based
[19] = test system: Aspergillus fumigatus; assay: Concentration for marked inhibition of growth of Aspergillus fumigatus in Sabouraud broth with 10% inactive bovine serum; format: functional, organism-based
[20] = test system: Trichophyton benhamiae; assay: Concentration for complete inhibition of growth of Trichophyton mentagrophytes in Sabouraud broth with 10% inactive bovine serum; format: functional, organism-based; conditions: Arthroderma benhamiae
[21] = test system: Sporothrix schenckii; assay: Concentration for marked inhibition of growth of Sporothrix schenck ii in Sabouraud broth with 10% inactive bovine serum; format: functional, organism-based
[22] = test system: Cryptococcus neoformans; assay: Concentration for complete inhibition of growth of Cryptococcus neoformans; format: functional, organism-based
[23] = test system: Saprolegnia; assay: Concentration for complete inhibition of growth of Saprolegnia sp. in Sabouraud broth with 10% inactive bovine serum; format: functional, organism-based
[24] = test system: Saprolegnia; assay: Concentration for marked inhibition of growth of Saprolegnia sp. in Sabouraud broth; format: functional, organism-based
[25] = test system: Phialophora verrucosa; assay: Concentration for complete inhibition of growth of Phialophora verrucosa; format: functional, organism-based
[26] = test system: Aspergillus fumigatus; assay: Concentration for marked inhibition of growth of Aspergillus fumigatus in Sabouraud broth; format: functional, organism-based
[27] = test system: Cavia porcellus; assay: Evaluated for marked improvement against microsporosis after 12 days of one time a day topical treatment with 0.5% of compound in a group of 36 guinea pigs; Improved; format: functional
[28] = test system: Mucor; assay: Concentration for complete inhibition of growth of Mucor sp. in Sabouraud broth with 10% inactive bovine serum; format: functional
[29] = test system: Cavia porcellus; assay: Evaluated for marked improvement against trichophytosis after 12 days of one time a day topical treatment with 0.5% of compound in a group of 20 guinea pigs; Improved; format: functional
[30] = test system: Trichophyton benhamiae; assay: Concentration for marked inhibition of growth of Trichophyton mentagrophytes in Sabouraud broth with 10% inactive bovine serum; format: functional, organism-based; conditions: Arthroderma benhamiae
[31] = test system: Cavia porcellus; assay: Evaluated for cure against trichophytosis after 12 days of one time a day topical treatment with 0.5% of compound in a group of 20 guinea pigs; format: functional
[32] = test system: Aspergillus fumigatus; assay: Concentration for complete inhibition of growth of Aspergillus fumigatus in Sabouraud broth with 10% inactive bovine serum; format: functional, organism-based
[33] = test system: Phialophora verrucosa; assay: Concentration for complete inhibition of growth of Phialophora verrucosa in Sabouraud broth with 10% inactive bovine serum; format: functional, organism-based
[34] = test system: Rattus norvegicus; assay: Evaluated for cure against vaginal candidosis after 3 days of 2 times a day topical treatment with 0.5% of compound in a group of 48 rats; format: functional
[35] = test system: Cavia porcellus; assay: Evaluated for cure against microsporosis after 12 days of one time a day topical treatment with 0.5% of compound in a group of 36 guinea pigs; format: functional
[36] = test system: Candida tropicalis; assay: Concentration for marked inhibition of growth of Candida tropicalis in Sabouraud broth; format: functional, organism-based
[37] = test system: Candida tropicalis; assay: Concentration for complete inhibition of growth of Candida tropicalis in Sabouraud broth with 10% inactive bovine serum; format: functional, organism-based
[38] = test system: Microsporum canis; assay: Concentration for complete inhibition of growth of Microsporum canis in Sabouraud broth with 10% inactive bovine serum; format: functional, organism-based
[39] = test system: Sporothrix schenckii; assay: Concentration for complete inhibition of growth of Sporothrix schenck ii; format: functional, organism-based
[40] = test system: Microsporum canis; assay: Concentration for marked inhibition of growth of Microsporum canis in Sabouraud broth with 10% inactive bovine serum; format: functional, organism-based
[41] = test system: Phialophora verrucosa; assay: Concentration for marked inhibition of growth of Phialophora verrucosa in Sabouraud broth with 10% inactive bovine serum; format: functional, organism-based
[42] = test system: Cryptococcus neoformans; assay: Concentration for marked inhibition of growth of Cryptococcus neoformans in Sabouraud broth with 10% inactive bovine serum; format: functional, organism-based
[43] = test system: Rattus norvegicus; assay: Evaluated for marked improvement against vaginal candidosis after 3 days of 2 times a day topical treatment with 0.5% of compound in a group of 48 rats; Improved; format: functional
[44] = test system: Trichophyton rubrum; assay: Concentration for marked inhibition of growth of Trichophyton rubrum in Sabouraud broth with 10% inactive bovine serum; format: functional, organism-based
[45] = test system: Trichophyton rubrum; assay: Concentration for marked inhibition of growth of Trichophyton rubrum in Sabouraud broth; format: functional, organism-based
[46] = test system: Sporothrix schenckii; assay: Concentration for complete inhibition of growth of Sporothrix schenck ii in Sabouraud broth with 10% inactive bovine serum; format: functional, organism-based
[47] = test system: Phialophora verrucosa; assay: Concentration for marked inhibition of growth of Phialophora verrucosa in Sabouraud broth; format: functional, organism-based
[48] = test system: Cryptococcus neoformans; assay: Concentration for marked inhibition of growth of Cryptococcus neoformans in Sabouraud broth; format: functional, organism-based
[49] = test system: Saprolegnia; assay: Concentration for marked inhibition of growth of Saprolegnia sp. in Sabouraud broth with 10% inactive bovine serum; format: functional, organism-based
[50] = test system: Trichophyton benhamiae; assay: Concentration for marked inhibition of growth of Trichophyton mentagrophytes in Sabouraud broth; format: functional, organism-based; conditions: Arthroderma benhamiae
[51] = test system: Candida albicans; assay: Concentration for marked inhibition of growth of Candida albicans in Sabouraud broth; format: functional, organism-based
[52] = test system: Candida tropicalis; assay: Concentration for marked inhibition of growth of Candida tropicalis in Sabouraud broth with 10% inactive bovine serum; format: functional, organism-based
[53] = test system: Trichophyton rubrum; assay: Concentration for complete inhibition of growth of Trichophyton rubrum in Sabouraud broth with 10% inactive bovine serum; format: functional, organism-based
[54] = test system: Candida albicans; assay: Concentration for marked inhibition of growth of Candida albicans in Sabouraud broth with 10% inactive bovine serum; format: functional, organism-based
[55] = test system: Mucor; assay: Concentration for marked inhibition of growth of Mucor sp. in Sabouraud broth; format: functional
[56] = test system: Sporothrix schenckii; assay: Concentration for marked inhibition of growth of Sporo thrix schenck ii in Sabouraud broth; format: functional, organism-based
[57] = test system: Microsporum canis; assay: Concentration for marked inhibition of growth of Microsporum canis in Sabouraud broth; format: functional, organism-based
[58] = test system: Mucor; assay: Concentration for marked inhibition of growth of Mucor sp. in Sabouraud broth with 10% inactive bovine serum; format: functional
[59] = test system: Candida albicans; assay: Concentration for complete inhibition of growth of Candida albicans in Sabouraud broth with 10% inactive bovine serum; format: functional, organism-based

Clc1ccccc1C(c1ccccc1)(c1ccccc1)n1ccnc1 [CLOTRIMAZOLE]
4: Cure [3]
> 100 µg/mL: Concentration [6] | Concentration [7] | Concentration [9] | Concentration [10] | Concentration [13] | Concentration [15] | Concentration [16]
100 µg/mL: Concentration [14]
< 1 µg/mL: Concentration [1] | Concentration [4] | Concentration [8]
3: Cure [5]
1: Improved [2] | Improved [12]
2: Cure [11] | Improved [17]

CC(C)N1CCN(c2ccc(OCC3COC(Cn4cncn4)(c4ccc(Cl)cc4Cl)O3)cc2)CC1 (configuration not stated) [TERCONAZOLE]
17: Activity [27]
35: Cure [34]
100 µg/mL: Concentration [19] | Concentration [25] | Concentration [28] | Concentration [4] | Concentration [38] | Concentration [39] | Concentration [8] | Concentration [46] | Concentration [56] | Concentration [57] | Concentration [58] | Concentration [59] | Concentration [16]
1 µg/mL: Concentration [18] | Concentration [1] | Concentration [20] | Concentration [21] | Concentration [36] | Concentration [37] | Concentration [41] | Concentration [44] | Concentration [48] | Concentration [49] | Concentration [50]
20: Cure [31]
0.1 µg/mL: Concentration [30] | Concentration [42] | Concentration [52] | Concentration [54]
10 µg/mL: Concentration [22] | Concentration [23] | Concentration [24] | Concentration [33] | Concentration [40] | Concentration [10] | Concentration [45] | Concentration [47] | Concentration [51] | Concentration [53]
19: Cure [35]
0: Activity [29]
2: Activity [43]
> 100 µg/mL: Concentration [26] | Concentration [32] | Concentration [6] | Concentration [7] | Concentration [14] | Concentration [55]
